target: IDO (Homo sapiens, UniProt P14902); assay: LLE_IDO_ABS_DR (IDO assay)
Sequence (P14902 whole entry): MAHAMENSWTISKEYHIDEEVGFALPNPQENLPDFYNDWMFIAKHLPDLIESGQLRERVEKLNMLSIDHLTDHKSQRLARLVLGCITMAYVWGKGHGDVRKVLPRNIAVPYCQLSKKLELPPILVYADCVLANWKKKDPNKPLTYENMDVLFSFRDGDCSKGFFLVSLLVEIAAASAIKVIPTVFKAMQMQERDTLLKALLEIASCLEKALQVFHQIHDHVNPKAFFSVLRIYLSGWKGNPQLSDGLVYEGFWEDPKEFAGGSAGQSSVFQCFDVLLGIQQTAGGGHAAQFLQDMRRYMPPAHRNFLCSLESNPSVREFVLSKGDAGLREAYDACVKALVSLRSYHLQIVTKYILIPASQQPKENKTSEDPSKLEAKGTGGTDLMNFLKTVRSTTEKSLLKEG

Row | IC50 | SMILES
1 | 9120 nM | CC(C)CN(CC(C)C)c1ccc(-c2ccccc2-c2nnn[nH]2)cc1NC(=O)NC(C)(C)CC(C)(C)C [Example 288, 1-(4-(Diisobutylamino)-2′-(1H-tetrazol-5-yl)-[1,1′-biphenyl]-3-yl)-3-(2,4,4-trimethylpentan-2-yl)urea]
2 | 1210 nM | Cc1ccc(NC(=O)Nc2cc(-c3ccccc3-c3nnn[nH]3)ccc2N(Cc2ccccc2)CC(C)C)cc1 [Example 289, 1-(4-(Benzyl(isobutyl)amino)-2′-(1H-tetrazol-5-yl)-[1,1′-biphenyl]-3-yl)-3-(p-tolyl)urea]
3 | 4.03 nM | Cc1ccc(NC(=O)Nc2cc(-c3ccccc3-c3nnn[nH]3)ccc2N(Cc2ccccc2)CC(C)C)cc1 [Example 292, 1-(4-(benzyl(isobutyl)amino)-2′-(1H-tetrazol-5-yl)-[1,1′-biphenyl]-3-yl)-3-(p-tolyl)urea]
4 | 300 nM | O=C(Nc1cc(-c2ccccc2-c2nnn[nH]2)ccc1N(CCc1ccccc1)CCC(F)(F)F)Nc1ccccc1C(F)(F)F [Example 295, 1-(4-(Phenethyl(3,3,3-trifluoropropyl)amino)-2′-(1H-tetrazol-5-yl)biphenyl-3-yl)-3-(2-(trifluoromethyl)phenyl)urea]
5 | 180 nM | O=C(Nc1ccc(C2CC2)c(F)c1)Nc1cc(-c2ccccc2-c2nnn[nH]2)ccc1N(CCc1ccccc1)CCC(F)(F)F [Example 296, 1-(4-Cyclopropyl-3-fluorophenyl)-3-(4-(phenethyl(3,3,3-trifluoropropyl)amino)-2′-(1H-tetrazol-5-yl)biphenyl-3-yl)urea]
6 | 10 nM | O=C(Nc1ccc(C2CC2)c(F)c1)Nc1cc(-c2ccccc2-c2nnn[nH]2)ccc1N(CCCC(F)(F)F)Cc1ccc(Cl)cc1 [Example 297, 1-(4-((4-chlorobenzyl)(4,4,4-trifluorobutyl)amino)-2′-(1H-tetrazol-5-yl)-[1,1′-biphenyl]-3-yl)-3-(4-cyclopropyl-3-fluorophenyl)urea]
7 | 80 nM | O=C(Nc1ccc(C2CC2)cc1)Nc1cc(-c2ccccc2-c2nnn[nH]2)ccc1N(CCc1ccccc1)CCC(F)(F)F [Example 298, 1-(4-cyclopropylphenyl)-3-(4-(phenethyl(3,3,3-trifluoropropyl)amino)-2′-(1H-tetrazol-5-yl)-[1,1′-biphenyl]-3-yl)urea]
8 | 180 nM | O=C(Nc1ccc(C(F)(F)F)cc1F)Nc1cc(-c2ccccc2-c2nnn[nH]2)ccc1N(CCC(F)(F)F)Cc1ccc(F)cc1C(F)(F)F [Example 300, 1-(4-((4-fluoro-2-(trifluoromethyl)benzyl) (3,3,3-trifluoropropyl)amino)-2′-(1H-tetrazol-5-yl)-[1,1′-biphenyl]-3-yl)-3-(2-fluoro-4-(trifluoromethyl)phenyl)urea]
9 | 70 nM | O=C(Nc1ccc(C2CC2)cc1)Nc1cc(-c2ccccc2-c2nnn[nH]2)ccc1N(CCC(F)(F)F)Cc1ccccn1 [Example 304, 1-(4-cyclopropylphenyl)-3-(4-((pyridin-2-ylmethyl)(3,3,3-trifluoropropyl)amino)-2′-(1H-tetrazol-5-yl)-[1,1′-biphenyl]-3-yl)urea]
10 | 7770 nM | Cc1ccc(NC(=O)Nc2cc(-c3ccccc3-c3nnn[nH]3)ccc2N2CCC(F)(F)C2)cc1 [Example 315, 1-(4-(3,3-difluoropyrrolidin-1-yl)-2′-(1H-tetrazol-5-yl)-[1,1′-biphenyl]-3-yl)-3-(p-tolyl)urea]
11 | 7720 nM | O=C(Nc1ccc(OC(F)(F)F)cc1)Nc1cc(-c2ccccc2-c2nnn[nH]2)ccc1N1CCC(F)(F)C1 [Example 316, 1-(4-(3,3-difluoropyrrolidin-1-yl)-2′-(1H-tetrazol-5-yl)-[1,1′-biphenyl]-3-yl)-3-(4-(trifluoromethoxy)phenyl)urea]
12 | 120 nM | O=C(Nc1ccc(OC(F)(F)F)cc1)Nc1cc(-c2ccccc2-c2nnn[nH]2)ccc1N1CC2CC1CN2Cc1ccccc1 (centres unmarked) [Example 318, 1-(4-(5-benzyl-2,5-diazabicyclo[2.2.1]heptan-2-yl)-2′-(1H-tetrazol-5-yl)-[1,1′-biphenyl]-3-yl)-3-(4-(trifluoromethoxy)phenyl)urea]
13 | 4.85 nM | Cc1ccc(NC(=O)Nc2cc(-c3ccccc3-c3nnn[nH]3)ccc2N(CCCC(F)(F)F)Cc2ccc(Cl)cc2)cc1 [Example 320, 1-(4-((4-chlorobenzyl)(4,4,4-trifluorobutyl)amino)-2′-(1H-tetrazol-5-yl)-[1,1′-biphenyl]-3-yl)-3-(p-tolyl)urea]
14 | 610 nM | O=C(Nc1cc(-c2ccccc2-c2nnn[nH]2)ccc1N(CCCC(F)(F)F)Cc1ccc(Cl)cc1)Nc1ccccc1C(F)(F)F [Example 321, 1-(4-((4-chlorobenzyl)(4,4,4-trifluorobutyl)amino)-2′-(1H-tetrazol-5-yl)-[1,1′-biphenyl]-3-yl)-3-(2-(trifluoromethyl)phenyl)urea]
15 | 540 nM | O=C(Nc1ccc(OC(F)(F)F)cc1)Nc1cc(-c2ccccc2-c2nnn[nH]2)ccc1N(CCC(F)(F)F)Cc1ccc(F)cc1 [Example 323, 1-(4-((4-fluorobenzyl)(3,3,3-trifluoropropyl)amino)-2′-(1H-tetrazol-5-yl)-[1,1′-biphenyl]-3-yl)-3-(4-(trifluoromethoxy)phenyl)urea]
16 | 160 nM | O=C(Nc1ccc(F)cc1F)Nc1cc(-c2ccccc2-c2nnn[nH]2)ccc1N(CCC(F)(F)F)Cc1ccc(F)cc1 [Example 324, 1-(2,4-difluorophenyl)-3-(4-((4-fluorobenzyl) (3,3,3-trifluoropropyl)amino)-2′-(1H-tetrazol-5-yl)-[1,1′-biphenyl]-3-yl) urea]
17 | 90 nM | Cc1ccc(NC(=O)Nc2cc(-c3ccccc3-c3nnn[nH]3)ccc2N(CCC(F)(F)F)Cc2ccc(F)cc2)cc1 [Example 325, 1-(4-((4-fluorobenzyl)(3,3,3-trifluoropropyl)amino)-2′-(1H-tetrazol-5-yl)-[1,1′-biphenyl]-3-yl)-3-(p-tolyl)urea]
18 | 1330 nM | O=C(Nc1cc(-c2ccccc2-c2nnn[nH]2)ccc1N(CCC(F)(F)F)Cc1ccc(F)cc1)Nc1ccccc1C(F)(F)F [Example 326, 1-(4-((4-fluorobenzyl)(3,3,3-trifluoropropyl)amino)-2′-(1H-tetrazol-5-yl)-[1,1′-biphenyl]-3-yl)-3-(2-(trifluoromethyl)phenyl)urea]
19 | 260 nM | O=C(Nc1ccc(OC(F)(F)F)cc1)Nc1cc(-c2ccccc2-c2nnn[nH]2)ccc1N(CCC(F)(F)F)Cc1ccc(C(F)(F)F)cc1 [Example 327, 1-(2′-(1H-tetrazol-5-yl)-4-((4-(trifluoromethyl)benzyl)(3,3,3-trifluoropropyl)amino)-[1,1′-biphenyl]-3-yl)-3-(4-(trifluoromethoxy)phenyl)urea]
20 | 390 nM | O=C(Nc1cc(-c2ccccc2-c2nnn[nH]2)ccc1N(CCC(F)(F)F)Cc1ccc(C(F)(F)F)cc1)Nc1ccccc1C(F)(F)F [Example 328, 1-(2′-(1H-tetrazol-5-yl)-4-((4-(trifluoromethyl)benzyl)(3,3,3-trifluoropropyl)amino)-[1,1′-biphenyl]-3-yl)-3-(2-(trifluoromethyl)phenyl)urea]
21 | 4.03 nM | Cc1ccc(NC(=O)Nc2cc(-c3ccccc3-c3nnn[nH]3)ccc2N(CCC(F)(F)F)Cc2ccc(C(F)(F)F)cc2)cc1 [Example 329, 1-(2′-(1H-tetrazol-5-yl)-4-((4-(trifluoromethyl)benzyl)(3,3,3-trifluoropropyl)amino)-[1,1′-biphenyl]-3-yl)-3-(p-tolyl)urea]
22 | 20 nM | O=C(Nc1ccc(F)cc1F)Nc1cc(-c2ccccc2-c2nnn[nH]2)ccc1N(CCC(F)(F)F)Cc1ccc(C(F)(F)F)cc1 [Example 330, 1-(2′-(1H-tetrazol-5-yl)-4-((4-(trifluoromethyl)benzyl)(3,3,3-trifluoropropyl)amino)-[1,1′-biphenyl]-3-yl)-3-(2,4-difluorophenyl) urea]
23 | 160 nM | O=C(Nc1ccc(OC(F)(F)F)cc1)Nc1cc(-c2ccccc2-c2nnn[nH]2)ccc1N(CCc1ccccc1)CCC(F)(F)F [Example 331, 1-(4-(phenethyl(3,3,3-trifluoropropyl)amino)-2′-(1H-tetrazol-5-yl)-[1,1′-biphenyl]-3-yl)-3-(4-(trifluoromethoxy)phenyl)urea]
24 | 20 nM | Cc1ccc(NC(=O)Nc2cc(-c3ccccc3-c3nnn[nH]3)ccc2N(CCc2ccccc2)CCC(F)(F)F)cc1 [Example 334, 1-(4-(phenethyl(3,3,3-trifluoropropyl)amino)-2′-(1H-tetrazol-5-yl)-[1,1′-biphenyl]-3-yl)-3-(p-tolyl)urea]
25 | 1080 nM | O=C(Nc1cc(-c2ccccc2-c2nnn[nH]2)ccc1N(CCC(F)(F)F)Cc1ccc(Cl)cc1Cl)Nc1ccccc1C(F)(F)F [Example 335, 1-(4-((2,4-dichlorobenzyl)(3,3,3-trifluoropropyl)amino)-2′-(1H-tetrazol-5-yl)-[1,1′-biphenyl]-3-yl)-3-(2-(trifluoromethyl)phenyl)urea]
26 | 340 nM | O=C(Nc1ccc(F)cc1F)Nc1cc(-c2ccccc2-c2nnn[nH]2)ccc1N(CCC(F)(F)F)Cc1ccc(Cl)cc1Cl [Example 336, 1-(4-((2,4-dichlorobenzyl)(3,3,3-trifluoropropyl)amino)-2′-(1H-tetrazol-5-yl)-[1,1′-biphenyl]-3-yl)-3-(2,4-difluorophenyl) urea]
27 | 410 nM | O=C(Nc1ccc(OC(F)(F)F)cc1)Nc1cc(-c2ccccc2-c2nnn[nH]2)ccc1N(CCC(F)(F)F)Cc1ccc(Cl)cc1Cl [Example 337, 1-(4-((2,4-dichlorobenzyl)(3,3,3-trifluoropropyl)amino)-2′-(1H-tetrazol-5-yl)-[1,1′-biphenyl]-3-yl)-3-(4-(trifluoromethoxy)phenyl)urea]
28 | 490 nM | O=C(Nc1cc(-c2ccccc2-c2nnn[nH]2)ccc1N(CCC(F)(F)F)Cc1ccc(F)cc1C(F)(F)F)Nc1ccccc1C(F)(F)F [Example 338, 1-(4-((4-fluoro-2-(trifluoromethyl)benzyl)(3,3,3-trifluoropropyl)amino)-2′-(1H-tetrazol-5-yl)-[1,1′-biphenyl]-3-yl)-3-(2-(trifluoromethyl)phenyl)urea]
29 | 160 nM | O=C(Nc1ccc(OC(F)(F)F)cc1)Nc1cc(-c2ccccc2-c2nnn[nH]2)ccc1N(CCC(F)(F)F)Cc1ccc(F)cc1C(F)(F)F [Example 339, 1-(4-((4-fluoro-2-(trifluoromethyl)benzyl)(3,3,3-trifluoropropyl)amino)-2′-(1H-tetrazol-5-yl)-[1,1′-biphenyl]-3-yl)-3-(4-(trifluoromethoxy)phenyl)urea]

Reference: patent US9758492B2, “IDO inhibitors” (Bristol-Myers Squibb Company, priority 2013, dated 2017)
